Results on 33 compounds are retold here after patent publication US20130303509A1, “NAMPT INHIBITORS” (AbbVie Inc., priority 2012, published 2013).

This assay relates to PC3 cells. As to the kind of experiment: NAMPT Cell Proliferation Assay. In kind it is cell-based. Conditions: Homo sapiens, PC-3, 120 h, 5 days incubation, cell viability by Cell Titer Glo. As to the method:
NAMPT Cell Proliferation Assay
PC3 cells were seeded in 96-well black plates (Corning #3904) at 500 cells)Owell in 90 µl of RPMI media containing 10% heat-inactivated FBS and incubated overnight at 37° C. and 5% CO2 to allow cells to attach to wells. The following day, test compounds were serially diluted in neat DMSO to 1000× final concentrations prior to dilution with RPMI media to 10× and 1% DMSO. […] of the 10× compounds were then transferred to wells containing cells to produce a dose response of 10-fold dilutions from […] to 1×10^−[…]. Cells were incubated for 5 days at 37° C. and 5% CO2, then cell viability was measured using Cell Titer Glo reagent (Promega #G7571). Percent inhibition values were calculated and fitted to a sigmoidal dose response curves using Assay Explorer software to determine IC50s.

SMILES strings stand for the structures.

In the case of `CC[C@H](C)C(=O)N1CCC(Oc2ccc(NC(=O)C3CN(c4cccnc4)C3)cc2)CC1` [Example 32, N-[4-({1-[(2S)-2-methylbutanoyl]piperidin-4-yl}oxy)phenyl]-1-(pyridin-3-yl)azetidine-3-carboxamide], the IC50 was 6.54 nM.
As for `O=C(Nc1ccc(OC2CCN(C(=O)[C@@H]3CCCO3)CC2)cc1)C1CN(c2cccnc2)C1` [Example 33, 1-(pyridin-3-yl)-N-[4-({1-[(2S)-tetrahydrofuran-2-ylcarbonyl]piperidin-4-yl}oxy)phenyl]azetidine-3-carboxamide], the figure is 3.66 nM; as for `CCCCC(=O)N1CCC(Oc2ccc(NC(=O)C3CN(c4cccnc4)C3)cc2)CC1` [Example 34, N-{4-[(1-pentanoylpiperidin-4-yl)oxy]phenyl}-1-(pyridin-3-yl)azetidine-3-carboxamide], 6.8 nM.
With `CC1CC1C(=O)N1CCC(Oc2ccc(NC(=O)C3CN(c4cccnc4)C3)cc2)CC1` (stereo not drawn) [Example 35, N-[4-({1-[(2-methylcyclopropyl)carbonyl]piperidin-4-yl}oxy)phenyl]-1-(pyridin-3-yl)azetidine-3-carboxamide] the figure was 6.92 nM; with `O=C(Nc1ccc(OC2CCN(C(=O)CC3C[C@@H]4CC[C@H]3C4)CC2)cc1)C1CN(c2cccnc2)C1` (stereo partly drawn) [Example 36, N-[4-({1-[(1S,4R)-bicyclo[2.2.1]hept-2-ylacetyl]piperidin-4-yl}oxy)phenyl]-1-(pyridin-3-yl)azetidine-3-carboxamide], 9.66 nM; with `CC(C)CCC(=O)N1CCC(Oc2ccc(NC(=O)C3CN(c4cccnc4)C3)cc2)CC1` [Example 37, N-(4-{[1-(4-methylpentanoyl)piperidin-4-yl]oxy}phenyl)-1-(pyridin-3-yl)azetidine-3-carboxamide], 6.48 nM.
As for `CCC(C)CC(=O)N1CCC(Oc2ccc(NC(=O)C3CN(c4cccnc4)C3)cc2)CC1` (stereo not drawn) [Example 38, N-(4-{[1-(3-methylpentanoyl)piperidin-4-yl]oxy}phenyl)-1-(pyridin-3-yl)azetidine-3-carboxamide], the figure is 6.39 nM; as for `CCOCCC(=O)N1CCC(Oc2ccc(NC(=O)C3CN(c4cccnc4)C3)cc2)CC1` [Example 39, N-(4-{[1-(3-ethoxypropanoyl)piperidin-4-yl]oxy}phenyl)-1-(pyridin-3-yl)azetidine-3-carboxamide], 7.38 nM.
In turn, `CCC(C)(C)C(=O)N1CCC(Oc2ccc(NC(=O)C3CN(c4cccnc4)C3)cc2)CC1` [Example 40, N-(4-{[1-(2,2-dimethylbutanoyl)piperidin-4-yl]oxy}phenyl)-1-(pyridin-3-yl)azetidine-3-carboxamide] yielded an IC50 of 2.17 nM.
The compound `CC(C)(C)CC(=O)N1CCC(Oc2ccc(NC(=O)C3CN(c4cccnc4)C3)cc2)CC1` [Example 41, N-(4-{[1-(3,3-dimethylbutanoyl)piperidin-4-yl]oxy}phenyl)-1-(pyridin-3-yl)azetidine-3-carboxamide] yielded an IC50 of 3.76 nM.
With `CC(C)(C)C(=O)N1CCC(Oc2ccc(NC(=O)C3CN(c4cccnc4)C3)cc2)CC1` [Example 42, N-(4-{[1-(2,2-dimethylpropanoyl)piperidin-4-yl]oxy}phenyl)-1-(pyridin-3-yl)azetidine-3-carboxamide] the figure was 64.6 nM; with `CCCC(=O)N1CCC(Oc2ccc(NC(=O)C3CN(c4cccnc4)C3)cc2)CC1` [Example 43, N-{4-[(1-butanoylpiperidin-4-yl)oxy]phenyl}-1-(pyridin-3-yl)azetidine-3-carboxamide], 6.88 nM; with `CCOCC(=O)N1CCC(Oc2ccc(NC(=O)C3CN(c4cccnc4)C3)cc2)CC1` [Example 44, N-(4-{[1-(ethoxyacetyl)piperidin-4-yl]oxy}phenyl)-1-(pyridin-3-yl)azetidine-3-carboxamide], 5.47 nM.
With `CC(C)CC(=O)N1CCC(Oc2ccc(NC(=O)C3CN(c4cccnc4)C3)cc2)CC1` [Example 45, N-(4-{[1-(3-methylbutanoyl)piperidin-4-yl]oxy}phenyl)-1-(pyridin-3-yl)azetidine-3-carboxamide] the figure was 6.77 nM; with `CC(C)C(=O)N1CCC(Oc2ccc(NC(=O)C3CN(c4cccnc4)C3)cc2)CC1` [Example 46, N-(4-{[1-(2-methylpropanoyl)piperidin-4-yl]oxy}phenyl)-1-(pyridin-3-yl)azetidine-3-carboxamide], 3.01 nM.
Turning to `CC(=O)N[C@@H](CC(C)C)C(=O)N1CCC(Oc2ccc(NC(=O)C3CN(c4cccnc4)C3)cc2)CC1` [Example 47, N-(4-{[1-(N-acetyl-L-leucyl)piperidin-4-yl]oxy}phenyl)-1-(pyridin-3-yl)azetidine-3-carboxamide], the IC50 turned out to be 3.35 nM.
With `COCCOCC(=O)N1CCC(Oc2ccc(NC(=O)C3CN(c4cccnc4)C3)cc2)CC1` [Example 48, N-[4-({1-[(2-methoxyethoxy)acetyl]piperidin-4-yl}oxy)phenyl]-1-(pyridin-3-yl)azetidine-3-carboxamide] the figure was 2.88 nM.
As for `O=C(Nc1ccc(OC2CCN(C(=O)C3CCCCC3)CC2)cc1)C1CN(c2cccnc2)C1` [Example 49, N-(4-{[1-(cyclohexylcarbonyl)piperidin-4-yl]oxy}phenyl)-1-(pyridin-3-yl)azetidine-3-carboxamide], the figure is 6.96 nM.
As for `O=C(Nc1ccc(OC2CCN(C(=O)CC3CCCCC3)CC2)cc1)C1CN(c2cccnc2)C1` [Example 50, N-(4-{[1-(cyclohexylacetyl)piperidin-4-yl]oxy}phenyl)-1-(pyridin-3-yl)azetidine-3-carboxamide], the figure is 8.95 nM; as for `O=C(Nc1ccc(OC2CCN(C(=O)CCC(F)(F)F)CC2)cc1)C1CN(c2cccnc2)C1` [Example 51, 1-(pyridin-3-yl)-N-(4-{[1-(4,4,4-trifluorobutanoyl)piperidin-4-yl]oxy}phenyl)azetidine-3-carboxamide], 3.62 nM; as for `O=C(Nc1ccc(OC2CCN(C(=O)C3CCCC3)CC2)cc1)C1CN(c2cccnc2)C1` [Example 52, N-(4-{[1-(cyclopentylcarbonyl)piperidin-4-yl]oxy}phenyl)-1-(pyridin-3-yl)azetidine-3-carboxamide], 6.28 nM.
`CC1(C(=O)N2CCC(Oc3ccc(NC(=O)C4CN(c5cccnc5)C4)cc3)CC2)CCCCC1` [Example 53, N-[4-({1-[(1-methylcyclohexyl)carbonyl]piperidin-4-yl}oxy)phenyl]-1-(pyridin-3-yl)azetidine-3-carboxamide] showed an IC50 of 3.67 nM.
As for `O=C(Nc1ccc(OC2CCN(C(=O)c3ccoc3)CC2)cc1)C1CN(c2cccnc2)C1` [Example 54, N-(4-{[1-(furan-3-ylcarbonyl)piperidin-4-yl]oxy}phenyl)-1-(pyridin-3-yl)azetidine-3-carboxamide], the figure is 3.31 nM.
As for `O=C(Nc1ccc(OC2CCN(C(=O)CC(F)(F)F)CC2)cc1)C1CN(c2cccnc2)C1` [Example 55, 1-(pyridin-3-yl)-N-(4-{[1-(3,3,3-trifluoropropanoyl)piperidin-4-yl]oxy}phenyl)azetidine-3-carboxamide], the figure is 21.1 nM.
The compound `CC(=O)N1CCC(Oc2ccc(NC(=O)C3CN(c4cccnc4)C3)cc2)CC1` [Example 56, N-{4-[(1-acetylpiperidin-4-yl)oxy]phenyl}-1-(pyridin-3-yl)azetidine-3-carboxamide] returned an IC50 of 9.27 nM.
As for `COCC(=O)N1CCC(Oc2ccc(NC(=O)C3CN(c4cccnc4)C3)cc2)CC1` [Example 57, N-(4-{[1-(methoxyacetyl)piperidin-4-yl]oxy}phenyl)-1-(pyridin-3-yl)azetidine-3-carboxamide], the figure is 8.75 nM; as for `O=C(Nc1ccc(OC2CCN(C(=O)c3ccsc3)CC2)cc1)C1CN(c2cccnc2)C1` [Example 58, 1-(pyridin-3-yl)-N-(4-{[1-(thiophen-3-ylcarbonyl)piperidin-4-yl]oxy}phenyl)azetidine-3-carboxamide], 6.48 nM; as for `Cc1ccsc1C(=O)N1CCC(Oc2ccc(NC(=O)C3CN(c4cccnc4)C3)cc2)CC1` [Example 59, N-[4-({1-[(3-methylthiophen-2-yl)carbonyl]piperidin-4-yl}oxy)phenyl]-1-(pyridin-3-yl)azetidine-3-carboxamide], 6.14 nM.
As for `O=C(Nc1ccc(OC2CCN(C(=O)CN3CCOCC3)CC2)cc1)C1CN(c2cccnc2)C1` [Example 60, N-(4-{[1-(morpholin-4-ylacetyl)piperidin-4-yl]oxy}phenyl)-1-(pyridin-3-yl)azetidine-3-carboxamide], the figure is 5.07 nM; as for `O=C(Nc1ccc(OC2CCN(C(=O)c3cccs3)CC2)cc1)C1CN(c2cccnc2)C1` [Example 61, 1-(pyridin-3-yl)-N-(4-{[1-(thiophen-2-ylcarbonyl)piperidin-4-yl]oxy}phenyl)azetidine-3-carboxamide], 3.52 nM; as for `Cc1ccc(C(=O)N2CCC(Oc3ccc(NC(=O)C4CN(c5cccnc5)C4)cc3)CC2)s1` [Example 62, N-[4-({1-[(5-methylthiophen-2-yl)carbonyl]piperidin-4-yl}oxy)phenyl]-1-(pyridin-3-yl)azetidine-3-carboxamide], 14.2 nM.
With `O=C(Nc1ccc(OC2CCN(C(=O)c3ccco3)CC2)cc1)C1CN(c2cccnc2)C1` [Example 63, N-(4-{[1-(furan-2-ylcarbonyl)piperidin-4-yl]oxy}phenyl)-1-(pyridin-3-yl)azetidine-3-carboxamide] the figure was 6.35 nM.
Compound `Cn1cccc1C(=O)N1CCC(Oc2ccc(NC(=O)C3CN(c4cccnc4)C3)cc2)CC1` [Example 64, N-[4-({1-[(1-methyl-1H-pyrrol-2-yl)carbonyl]piperidin-4-yl}oxy)phenyl]-1-(pyridin-3-yl)azetidine-3-carboxamide] had an IC50 of 6.32 nM.

As a reminder, the IC50 is the concentration needed to halve the response being measured. A low value points to higher potency.
